pEC50: −log10 of the molar value.

For the first assay, the system named is Scleraxis (Scx) gene transcriptional activation in TT-D6 Scx-luciferase (ScxL) cell line. The assay is described as follows: SCX-LUC in vitro assay (Scx-luciferase reporter). The format is cell-based. The settings on record: Mus musculus, 96 h; Table 3; four days; read-out: Scx-Luc (EC50 μM).
With `COc1c(-c2ccc(S(=O)(=O)N3CC(F)(F)C[C@H]3CO)cc2F)ccc2[nH]nc(N)c12` [Example 41, (S)-(1-((4-(3-amino-4-methoxy-1H-indazol-5-yl)-3-fluorophenyl)sulfonyl)-4,4-difluoropyrrolidin-2-yl)methanol], the EC50 worked out at 1.33 µM.
On the same count and under the same terms, with `Cc1cc(S(=O)(=O)N2CCC(O)(C(F)(F)F)C2)ccc1-c1ccc2[nH]nc(N)c2c1C` (stereo not shown) [Example 62, 1-((4-(3-amino-4-methyl-1H-indazol-5-yl)-3-methylphenyl)sulfonyl)-3-(trifluoromethyl)pyrrolidin-3-ol] the figure was 0.63 µM; with `Cc1cc(S(=O)(=O)N2CCC(C)(O)C2)ccc1-c1ccc2[nH]nc(N)c2c1C` (stereo not shown) [Example 57, 1-((4-(3-amino-4-methyl-1H-indazol-5-yl)-3-methylphenyl)sulfonyl)-3-methylpyrrolidin-3-ol], 2.71 µM; with `Cc1cc(S(=O)(=O)N(C)[C@@H]2CCC[C@@H]2O)ccc1-c1ccc2[nH]nc(N)c2c1C` [Example 84, 4-(3-amino-4-methyl-1H-indazol-5-yl)-N-((1R,2S)-2-hydroxycyclopentyl)-N,3-dimethylbenzenesulfonamide], 1.69 µM.
On the same count and under the same terms, the value for `Nc1n[nH]c2ccc(-c3ccc(S(=O)(=O)N4CC[C@@H](O)C4)cc3F)c(Cl)c12` [Example 6, (R)-1-((4-(3-amino-4-chloro-1H-indazol-5-yl)-3-fluorophenyl)sulfonyl)pyrrolidin-3-ol] was 4.41 µM.
Still for that read-out and setting: the value for `COc1c(-c2ccc(S(=O)(=O)NC3CC(O)(C(F)(F)F)C3)cc2C)ccc2[nH]nc(N)c12` (stereo not shown) [Example 70, 4-(3-amino-4-methoxy-1H-indazol-5-yl)-N-((1s,3s)-3-hydroxy-3-(trifluoromethyl)cyclobutyl)-3-methylbenzenesulfonamide] was 0.282 µM.
Consider `Nc1n[nH]c2ccc(-c3ccc(S(=O)(=O)NC4CC(O)(C(F)(F)F)C4)cc3Cl)c(F)c12` (stereo not shown) [Example 72, 4-(3-amino-4-fluoro-1H-indazol-5-yl)-3-chloro-N-((1s,3s)-3-hydroxy-3-(trifluoromethyl)cyclobutyl)benzenesulfonamide], for which the EC50 amounted to 0.177 µM.
For `Cc1cc(S(=O)(=O)N[C@@H]2CC[C@H](O)C2)ccc1-c1ccc2[nH]nc(N)c2c1C` [Example 35, 4-(3-amino-4-methyl-1H-indazol-5-yl)-N-((1R,3S)-3-hydroxycyclopentyl)-3-methylbenzenesulfonamide], the EC50 is 1.52 µM.
The same measure, in the same setting: the value for `Cc1cc(S(=O)(=O)N2CC(C#N)C2)ccc1-c1ccc2[nH]nc(N)c2c1C` [Example 22, 1-((4-(3-amino-4-methyl-1H-indazol-5-yl)-3-methylphenyl)sulfonyl)azetidine-3-carbonitrile] was 0.879 µM; that for `Cc1cc(S(=O)(=O)N2CCCC(F)(F)C2)ccc1-c1ccc2[nH]nc(N)c2c1C` [Example 79, 5-(4-((3,3-difluoropiperidin-1-yl)sulfonyl)-2-methylphenyl)-4-methyl-1H-indazol-3-amine] was 1.52 µM.
On the same count and under the same terms, with `Cc1cc(S(=O)(=O)N[C@@H]2CCC[C@@H]2O)ccc1-c1ccc2[nH]nc(N)c2c1F` [Example 75, 4-(3-amino-4-fluoro-1H-indazol-5-yl)-N-((1R,2S)-2-hydroxycyclopentyl)-3-methylbenzenesulfonamide] the figure was 0.359 µM; with `Cc1cc(S(=O)(=O)N2CCC(C#N)CC2)ccc1-c1ccc2[nH]nc(N)c2c1C` [Example 23, 1-((4-(3-amino-4-methyl-1H-indazol-5-yl)-3-methylphenyl)sulfonyl)piperidine-4-carbonitrile], 1.85 µM.
For `Cc1cc(S(=O)(=O)N[C@H]2C[C@@H](O)C2)ccc1-c1ccc2[nH]nc(N)c2c1Cl` [Example 30, 4-(3-amino-4-chloro-1H-indazol-5-yl)-N-((1s,3s)-3-hydroxycyclobutyl)-3-methylbenzenesulfonamide], the EC50 came out at 0.752 µM.
Regarding `Cc1cc(S(=O)(=O)N2CC(F)(F)C[C@H]2C(N)=O)ccc1-c1ccc2[nH]nc(N)c2c1C` [Example 81, (S)-1-((4-(3-amino-4-methyl-1H-indazol-5-yl)-3-methylphenyl)sulfonyl)-4,4-difluoropyrrolidine-2-carboxamide], the concentration giving a half-maximal response (EC50) was 0.372 µM.
Still for that read-out and setting: the value for `Cc1cc(S(=O)(=O)N2CC(F)(F)C[C@H]2CO)ccc1-c1ccc2[nH]nc(N)c2c1F` [Example 44, (S)-(1-((4-(3-amino-4-fluoro-1H-indazol-5-yl)-3-methylphenyl)sulfonyl)-4,4-difluoropyrrolidin-2-yl)methanol] was 1.19 µM.
With `Cc1c(-c2ccc(S(=O)(=O)N3CCC(O)C3)cc2F)ccc2[nH]nc(N)c12` (stereo not shown) [Example 3, 1-((4-(3-amino-4-methyl-1H-indazol-5-yl)-3-fluorophenyl)sulfonyl)pyrrolidin-3-ol], the concentration giving a half-maximal response (EC50) is 2.83 µM.
For the compound `Nc1n[nH]c2ccc(-c3ccc(S(=O)(=O)N4CC(F)(F)C[C@H]4CO)cc3Cl)c(F)c12` [Example 46, (S)-(1-((4-(3-amino-4-fluoro-1H-indazol-5-yl)-3-chlorophenyl)sulfonyl)-4,4-difluoropyrrolidin-2-yl)methanol], the EC50 stood at 1.05 µM.
With `Cc1cc(S(=O)(=O)N[C@H]2CCC[C@]2(C)O)ccc1-c1ccc2[nH]nc(N)c2c1C` [Example 58, 4-(3-amino-4-methyl-1H-indazol-5-yl)-N-((1S,2S)-2-hydroxy-2-methylcyclopentyl)-3-methylbenzenesulfonamide], the EC50 was determined as 1.33 µM.
Consider `Cc1c(-c2ccc(S(=O)(=O)N3CCC[C@H]3CO)cc2Cl)ccc2[nH]nc(N)c12` [Example 38, (S)-(1-((4-(3-amino-4-methyl-1H-indazol-5-yl)-3-chlorophenyl)sulfonyl)pyrrolidin-2-yl)methanol], for which the EC50 came to 2.04 µM.
Still for that read-out and setting: with `Nc1n[nH]c2ccc(-c3ccc(S(=O)(=O)N4CC(F)(F)C[C@H]4CO)cc3F)c(Cl)c12` [Example 47, (S)-(1-((4-(3-amino-4-chloro-1H-indazol-5-yl)-3-fluorophenyl)sulfonyl)-4,4-difluoropyrrolidin-2-yl)methanol] the figure was 0.986 µM; with `Cc1cc(S(=O)(=O)N2CC(F)=C[C@H]2CO)ccc1-c1ccc2[nH]nc(N)c2c1C` [Example 33, (S)-(1-((4-(3-amino-4-methyl-1H-indazol-5-yl)-3-methylphenyl)sulfonyl)-4-fluoro-2,5-dihydro-1H-pyrrol-2-yl)methanol], 0.17 µM.
As for `Cc1cc(S(=O)(=O)N[C@@H]2CCC[C@@H]2O)ccc1-c1ccc2[nH]nc(N)c2c1Cl` [Example 29, 4-(3-amino-4-chloro-1H-indazol-5-yl)-N-((1R,2S)-2-hydroxycyclopentyl)-3-methylbenzenesulfonamide], the EC50 is 0.277 µM.
Take `Nc1n[nH]c2ccc(-c3ccc(S(=O)(=O)N[C@@H]4CCC[C@@H]4O)cc3Cl)c(F)c12` [Example 76, 4-(3-amino-4-fluoro-1H-indazol-5-yl)-3-chloro-N-((1R,2S)-2-hydroxycyclopentyl)benzenesulfonamide]: the EC50 came out at 0.171 µM.
For the compound `Cc1cc(S(=O)(=O)NC2CC(F)(F)C2)ccc1-c1ccc2[nH]nc(N)c2c1C` [Example 24, 4-(3-amino-4-methyl-1H-indazol-5-yl)-N-(3,3-difluorocyclobutyl)-3-methylbenzenesulfonamide], the EC50 was found to be 0.366 µM.
Still for that read-out and setting: the value for `Cc1cc(S(=O)(=O)N[C@H]2CCC[C@@]2(C)O)ccc1-c1ccc2[nH]nc(N)c2c1C` [Example 59, 4-(3-amino-4-methyl-1H-indazol-5-yl)-N-((1S,2R)-2-hydroxy-2-methylcyclopentyl)-3-methylbenzenesulfonamide] was 3.32 µM.
The same measure, in the same setting: the value for `Cc1cc(S(=O)(=O)N2CC(O)C2)ccc1-c1ccc2[nH]nc(N)c2c1C` [Example 11, 1-((4-(3-amino-4-methyl-1H-indazol-5-yl)-3-methylphenyl)sulfonyl)azetidin-3-ol] was 4.13 µM.
`Cc1cc(-c2ccc3[nH]nc(N)c3c2C)ccc1S(=O)(=O)N1CC(F)(F)C[C@H]1CO` [Example 91, (S)-(1-((4-(3-amino-4-methyl-1H-indazol-5-yl)-2-methylphenyl)sulfonyl)-4,4-difluoropyrrolidin-2-yl)methanol]: the EC50 was 2.91 µM.
The same measure, in the same setting: the value for `Cc1cc(S(=O)(=O)NC2CC(F)(F)C2)ccc1-c1ccc2[nH]nc(N)c2c1Cl` [Example 66, 4-(3-amino-4-chloro-1H-indazol-5-yl)-N-(3,3-difluorocyclobutyl)-3-methylbenzenesulfonamide] was 1.08 µM.
`Cc1cc(S(=O)(=O)N[C@@H]2CCC[C@@H](C#N)C2)ccc1-c1ccc2[nH]nc(N)c2c1C` [Example 26, 4-(3-amino-4-methyl-1H-indazol-5-yl)-N-((1R,3R)-3-cyanocyclohexyl)-3-methylbenzenesulfonamide]: the EC50 came to 0.745 µM.
On the same count and under the same terms, the value for `Nc1n[nH]c2ccc(-c3ccc(S(=O)(=O)N4CC(F)(F)C[C@H]4CO)cc3Cl)c(Cl)c12` [Example 53, (S)-(1-((4-(3-amino-4-chloro-1H-indazol-5-yl)-3-chlorophenyl)sulfonyl)-4,4-difluoropyrrolidin-2-yl)methanol] was 0.74 µM; that for `Cc1cc(S(=O)(=O)N[C@H]2C[C@H](O)C2)ccc1-c1ccc2[nH]nc(N)c2c1C` [Example 9, 4-(3-amino-4-methyl-1H-indazol-5-yl)-N-((1r,3r)-3-hydroxycyclobutyl)-3-methylbenzenesulfonamide] was 4.96 µM.
On the same count and under the same terms, the value for `Cc1cc(S(=O)(=O)N2C[C@H](F)C[C@H]2CO)ccc1-c1ccc2[nH]nc(N)c2c1C` [Example 87, ((2S,4R)-1-((4-(3-amino-4-methyl-1H-indazol-5-yl)-3-methylphenyl)sulfonyl)-4-fluoropyrrolidin-2-yl)methanol] was 0.288 µM.

The assay is the same for the next values; noted with them: Mus musculus; assays described above (Scx-Luc and ex vivo); read-out: EC50 in the assays described above.
In the case of `Cc1cc(S(=O)(=O)N2C[C@H](O)[C@@H](F)C2)ccc1-c1ccc2[nH]nc(N)c2c1C` [(3S,4S)-1-((4-(3-amino-4-methyl-1H-indazol-5-yl)-3-methylphenyl)sulfonyl)-4-fluoropyrrolidin-3-ol], the pEC50 was below 5.00.
Still for that read-out and setting: with `Cc1cc(S(=O)(=O)NC2CCN(C)CC2)ccc1-c1ccc2[nH]nc(N)c2c1C` [4-(3-amino-4-methyl-1H-indazol-5-yl)-3-methyl-N-(1-methylpiperidin-4-yl)benzenesulfonamide] the figure was below 5.00.
